Assay results published in US20170088609A1, “ANTICANCER COMBINATION THERAPY” (priority 2015, published 2017).

What was measured:
mutant forms of EGFR = experiment: Enzymatic inhibitory activity towards EGFR; assay type: biochemical
Description: (§1) Compound 1 is a small molecule epidermal growth factor receptor (EGFR) mutant-specific inhibitor. […] Anti-tumor efficacy was independent of schedule (once daily versus twice daily administration) and was tolerated by the mice at clinically relevant exposure. Compound 1 is a novel, 3rd generation EGFR mutant-specific TKI, which is currently being investigated in first and second line setting for treatment of patients with EGFR-mutated NSCLC.

EGFR mutant cell lines = experiment: Cellular assays comparing EGFR mutant with EGFR wild type cell lines (proliferation); assay type: cell-based; conditions: EGFR mutant vs EGFR wild type cell lines
Description: as §1

[1] = test system: HCC827 (EGFRDelE746-A750)
Description: as §1

H1975 (EGFRL858R/T790M) = experiment: In vivo xenograft study, NSCLC model H1975; conditions: H1975 xenograft in mice; once daily or twice daily
Description: as §1

[2] = test system: PC-9/GR/WR tumor xenografts; experiment: PC-9/GR/WR xenograft studies (tumor volume); assay type: in vivo; conditions: SCID mice; HM61713 200 and 400 mg/kg oral gavage 5 days a week
Description: To establish the PC-9/GR/WR xenograft model, female severe combined immunodeficiency (SCID) mice (18-20 g, 6 weeks of age) were purchased from Charles River Laboratories. All experimental procedures were conducted following a protocol approved by the Institutional Animal Care and Use committee of Asan Institute for Life Sciences (2015-02-062). […] Combination with WZ4002: […] Combination with HM61713: […] Body weights were measured every 3-4 days. At the end of the combination experiment with WZ4002, tumors from each group were homogenized for lysate preparation and analyzed by Western Blotting.

[3] = test system: T790M-containing cell lines; conditions: several preclinical models; cited from earlier work

## C=CC(=O)Nc1cccc(Oc2nc(Nc3ccc(N4CCN(C)CC4)cc3)nc3ccsc23)c1 [compound 1, N-(3-{2-[4-(4-methyl-piperazin-1-yl)-phenylamino]-thieno[3,2-d]pyrimidin-4-yloxy}-phenyl)-acrylamide]
Mutant forms of EGFR; common EGFR mutants (L858R and exon 19 deletions) and certain uncommon EGFR mutants including T790M, covalent binding
  blocking of the catalytic activity of EGFR mutants: irreversibly blocks
Mutant forms of EGFR; in vitro
  enzymatic inhibitory activity towards mutant forms of EGFR compared to wild type EGFR: more potent
EGFR mutant cell lines
  inhibition of proliferation of mutated cell lines at lower concentration than for cells expressing wild type EGFR receptor: approximately 35 fold
[1]; HCC827 xenograft in mice, once daily or twice daily
  anti-tumor activity as a single agent: Tumor regressions
[1]; mouse, in vivo
  tolerability in mice: tolerated
H1975 (EGFRL858R/T790M)
  anti-tumor activity as a single agent: Tumor regressions
[2]
  response of PC-9/GR/WR tumor xenografts to monotherapy: Cross-resistance

## COc1cc2ncnc(Nc3ccc(F)c(Cl)c3)c2cc1NC(=O)/C=C/CN1CCCCC1 [dacomitinib]
[3]
  inhibition of T790M-containing cell lines: effectively inhibit
